In patent publication US11680056B2, “MK2 inhibitors and uses thereof” (Xinthera, Inc., priority 2021, dated 2023):
Read-outs that look alike come from different tables or passages of the source.

Columns and labels:
p38a/MK2 = p38a/MK2 (Homo sapiens (Human), UniProt P49137+Q16539); test: p38a/MK2 biochemical assay: activation of MK2 by p38, FITC-HSP27 peptide phosphorylation (IMAP FP); conditions: 10-point 1:3 dilution, 60 pM active p38a, 1 nM inactive MK2, 10 μM ATP, 2 h incubation
Method: (§1) Expression vectors of the recombinant MK2 and PRAK kinases were constructed by cloning of the codon optimized gene sequences of MK2 (Uniprot ID P49137, amino acid fragment F46-H400), or PRAK (Uniprot ID Q81W41, amino acid fragment M1-Q471) into pGEX-4T1 (GE) for over expression of these kinases with N-terminal GST-tag. Protein expression was carried out in E. coli BL21 by growing the hosts in TB medium, induction of protein expression with 0.5 mM IPTG at approximate 0.8 OD600, and incubation of the cultures at 18° C. for 14-20 hours afterwards. The harvested cells were resuspended in […] of Lysis buffer (50 mM Tris-HCl, pH 8.0, 500 mM NaCl, 1 mM DTT, 5% glycerol, and 1 mM PMSF) per gram of wet cell mass and homogenized at 4° C. in a microfluidizer (ATS, Suzhou, China) at 14,000 psi pressure, 3 passes. The cell lysates were clarified by centrifugation and the supernatants containing the GST-fusion proteins were purified by affinity chromatography using GSH-Sepharose (GE) gravity flow columns pre-equilibrated in Buffer A (50 mM Tris-HCl, pH 8.0, 500 mM NaCl, 1 mM DTT, and 5% glycerol). After thorough washing of the columns with Buffer A, the bound GST-proteins were eluted by Buffer B (50 mM Tris, pH 8.0, 500 mM NaCl, 1 mM DTT, 5% glycerol, 10 mM glutathione), followed by size-exclusion purification on Superdex 200 column equilibrated in Buffer A. The purified proteins were concentrated to approximately 1 mg/ml and stored at −80° C.
This study evaluates the inhibitory potency of invention compound on p38/MK2 pathway vs p38/PRAK pathway. More specially the compound concentration (IC50) was determined that inhibited half of the maximal activation of MK2 or PRAK by p38. MK2 activation study was set up without or with a serial of 10-point 1:[…], and PRAK activation study was set up without or with a serial of 10-point 1:3 dilution of invention compound at top dose of 300 μM. The MK2 and PRAK activity were determined by the phosphorylation level of HSP27 peptide conjugated with FITC.
(§2) After 2 h incubation of the reaction mixture with various concentration of invention compound (200 nL), 60 μL 1×IMAP solution Mixture (Molecular Devices, Cat R8127) was added to the reaction mixture and incubated for another half hour. The signal was then read by Synergy™ Neo2 Multi-Mode Microplate Reader with filter setting (Ex/Em=485 nm/FITC FP-P pol 528 nm & FITC FP-S pol 528 nm)
(§3) The signal was then normalized to vehicle control and fitted in Xfit to generate IC50. The selectivity of MK2 over PRAK was calculated by the formular Selectivity=IC50 of PRAK/IC50 of MK2.

p38a/PRAK = p38a/PRAK (Homo sapiens (Human), UniProt Q16539); test: p38a/PRAK biochemical assay: activation of PRAK by p38, FITC-HSP27 peptide phosphorylation (IMAP FP); conditions: 10-point 1:3 dilution, top dose 300 μM; 60 pM active p38a, 1 nM inactive PRAK, 10 μM ATP, 2 h incubation; read-out: p38a/PRAK Enzyme pIC50 (converted)
Method: as §1
This study evaluates the inhibitory potency of invention compound on p38/MK2 pathway vs p38/PRAK pathway. More specially the compound concentration (IC50) was determined that inhibited half of the maximal activation of MK2 or PRAK by p38. MK2 activation study was set up without or with a serial of 10-point 1:3 dilution of invention compound at top dose of […], and PRAK activation study was set up without or with a serial of 10-point 1:3 dilution of invention compound at top dose of 300 μM. The MK2 and PRAK activity were determined by the phosphorylation level of HSP27 peptide conjugated with FITC.
as §2, §3

[1] = top dose 10 μM, read-out: p38a/MK2 (10 μM) Enzyme pIC50 (converted)
[2] = top dose 1 μM, read-out: p38a/MK2 (1 μM) Enzyme pIC50 (converted)

Sequence of p38a/PRAK (Q16539 whole entry): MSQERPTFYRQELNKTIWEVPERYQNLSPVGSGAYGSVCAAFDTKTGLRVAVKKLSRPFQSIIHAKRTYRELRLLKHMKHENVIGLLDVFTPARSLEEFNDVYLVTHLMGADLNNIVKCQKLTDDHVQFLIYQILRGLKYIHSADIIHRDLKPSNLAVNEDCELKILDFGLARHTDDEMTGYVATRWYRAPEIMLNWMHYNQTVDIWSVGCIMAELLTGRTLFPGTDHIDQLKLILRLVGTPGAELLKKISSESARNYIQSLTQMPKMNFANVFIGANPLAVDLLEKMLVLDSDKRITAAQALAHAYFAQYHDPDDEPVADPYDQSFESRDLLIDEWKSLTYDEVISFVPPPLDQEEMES
Sequence of p38a/MK2 (P49137 46-400): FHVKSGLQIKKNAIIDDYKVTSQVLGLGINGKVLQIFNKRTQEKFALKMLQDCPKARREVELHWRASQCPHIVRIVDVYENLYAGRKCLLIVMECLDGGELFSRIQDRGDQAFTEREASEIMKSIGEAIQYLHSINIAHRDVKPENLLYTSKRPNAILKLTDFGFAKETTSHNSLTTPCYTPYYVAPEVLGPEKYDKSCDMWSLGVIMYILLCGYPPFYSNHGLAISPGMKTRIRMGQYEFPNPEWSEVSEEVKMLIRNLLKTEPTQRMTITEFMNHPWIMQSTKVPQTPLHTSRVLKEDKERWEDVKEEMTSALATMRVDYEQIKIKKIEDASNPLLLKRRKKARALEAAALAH
Sequence of p38a/MK2 (Q16539 whole entry, the tested form may be a part): as the sequence (Q16539 whole entry) above

With `Cc1cnc(-c2ccc(F)c(C(C)(C)O)n2)cc1-n1c(C)cc(OCc2ncc(F)cc2F)c(Cl)c1=O` (single isomer, unassigned) [Example 24B, rel-3-chloro-4-[(3,5-difluoropyridin-2-yl)methoxy]-1-[5′-fluoro-6′-(2-hydroxypropan-2-yl)-5-methyl-[2,2′-bipyridin]-4-yl]-6-methylpyridin-2-one] the IC50 (p38a/MK2; [1]) was 1580 nM and the IC50 (p38a/PRAK) was greater than 316000 nM.
In the case of `Cc1cnc(-c2ccc(F)c(C(C)(C)O)n2)cc1-n1c(C)cc(OCc2ncc(F)cc2F)c(Cl)c1=O` (single isomer, unassigned) [Example 24A, rel-3-chloro-4-[(3,5-difluoropyridin-2-yl)methoxy]-1-[5′-fluoro-6′-(2-hydroxypropan-2-yl)-5-methyl-[2,2′-bipyridin]-4-yl]-6-methylpyridin-2-one], the IC50 (p38a/MK2; [2]) is reported as 1.58 nM and the IC50 (p38a/PRAK) is reported as 6310 nM.
`Cc1cnc(-n2ccc(C(C)(C)O)n2)cc1-n1c(C)cc(OCc2ncc(F)cc2Cl)c(Cl)c1=O` (single isomer, unassigned) [Example 47A, rel-3-chloro-4-[(3-chloro-5-fluoropyridin-2-yl)methoxy]-2′-[3-(2-hydroxypropan-2-yl)pyrazol-1-yl]-5′,6-dimethyl-[1,4′-bipyridin]-2-one] gave an IC50 (p38a/MK2; [2]) of 2 nM and an IC50 (p38a/PRAK) of 5010 nM.
For `[2H]C([2H])(Oc1cc(C)n(-c2c(C)cnc(-c3cccc(C(C)(C)O)[n+]3[O-])c2F)c(=O)c1Cl)c1ncc(F)cc1F` (single isomer, unassigned) [Example 68B, rel-4′-{3-chloro-4-[(3,5-difluoropyridin-2-yl) (2H2)methoxy]-6-methyl-2-oxopyridin-1-yl}-3′-fluoro-6-(2-hydroxypropan-2-yl)-5′-methyl-[2,2′-bipyridin]-1-ium-1-olate], the IC50 (p38a/MK2; [2]) was 0.2 nM and the IC50 (p38a/PRAK) was 398 nM.
For `[2H]C([2H])(Oc1cc(C)n(-c2cc(-c3ccnc(C(C)(C)O)c3F)ncc2C)c(=O)c1Cl)c1ncc(F)cc1F` (single isomer, unassigned) [Example 64A, rel-3-chloro-4-[(3,5-difluoropyridin-2-yl)(2H2)methoxy]-1-[3′-fluoro-2′-(2-hydroxypropan-2-yl)-5-methyl-[2,4′-bipyridin]-4-yl]-6-methylpyridin-2-one], the IC50 (p38a/MK2; [2]) was 2 nM and the IC50 (p38a/PRAK) was 2000 nM.
`Cc1cnc(-n2ccc(C(C)(C)CO)n2)cc1-n1c(C)cc(OCc2ncc(F)cc2F)c(Cl)c1=O` (single isomer, unassigned) [Example 37A, rel-3-chloro-4-[(3,5-difluoropyridin-2-yl)methoxy]-2′-[3-(1-hydroxy-2-methylpropan-2-yl)pyrazol-1-yl]-5′,6-dimethyl-[1,4′-bipyridin]-2-one] showed an IC50 (p38a/MK2; [2]) of 5.01 nM and an IC50 (p38a/PRAK) of 2510 nM.
Compound `Cc1cnc(-n2ccc(CC(C)(C)O)n2)cc1-n1c(C)cc(OCc2ncc(F)cc2F)c(Cl)c1=O` (single isomer, unassigned) [Example 46B, rel-3-chloro-4-[(3,5-difluoropyridin-2-yl)methoxy]-2′-[3-(2-hydroxy-2-methylpropyl)pyrazol-1-yl]-5′,6-dimethyl-[1,4′-bipyridin]-2-one] has an IC50 (p38a/MK2; [2]) greater than 1000 nM and an IC50 (p38a/PRAK) greater than 316000 nM.
In the case of `Cc1cnc(-c2ccnc(CC3(O)CC3)n2)cc1-n1c(C)cc(OCc2ncc(F)cc2F)c(Cl)c1=O` (single isomer, unassigned) [Example 48A, rel-3-chloro-4-[(3,5-difluoropyridin-2-yl)methoxy]-2′-{2-[(1-hydroxycyclopropyl)methyl]pyrimidin-4-yl}-5′,6-dimethyl-[1,4′-bipyridin]-2-one], the IC50 (p38a/MK2; [2]) is reported as 5.01 nM and the IC50 (p38a/PRAK) is reported as 2000 nM.
`Cc1cnc(-c2ccnc(C(C)(C)C(F)F)n2)cc1-n1c(C)cc(OCc2ncc(F)cc2F)c(Cl)c1=O` (single isomer, unassigned) [Example 5B, rel-3-chloro-2′-[2-(1,1-difluoro-2-methylpropan-2-yl)pyrimidin-4-yl]-4-[(3,5-difluoropyridin-2-yl)methoxy]-5′,6-dimethyl-[1,4′-bipyridin]-2-one] gave an IC50 (p38a/MK2; [1]) of 2000 nM and an IC50 (p38a/PRAK) greater than 316000 nM.
In the case of `Cc1cnc(-c2cccc([C@@H](O)CO)n2)cc1-n1c(C)cc(OCc2ncc(F)cc2F)c(Cl)c1=O` (single isomer, unassigned) [Example 34D, rel-3-chloro-4-[(3,5-difluoropyridin-2-yl)methoxy]-2′-[6-(1,2-dihydroxyethyl)pyridin-2-yl]-5′,6-dimethyl-[1,4′-bipyridin]-2-one], the IC50 (p38a/MK2; [1]) is reported as 3160 nM and the IC50 (p38a/PRAK) is reported as greater than 316000 nM.
For `Cc1cnc(-c2ccnc(N(C)CCO)n2)cc1-n1c(C)cc(OCc2ncc(F)cc2F)c(Cl)c1=O` (single isomer, unassigned) [Example 43B, rel-3-chloro-4-[(3,5-difluoropyridin-2-yl)methoxy]-2′-{2-[(2-hydroxyethyl)(methyl)amino]pyrimidin-4-yl}-5′,6-dimethyl-[1,4′-bipyridin]-2-one], the IC50 (p38a/MK2; [2]) was greater than 1000 nM and the IC50 (p38a/PRAK) was greater than 316000 nM.
`Cc1cnc(-c2ccnc(C(C)(C)O)n2)c(F)c1-n1c(C)cc(OCc2ncc(F)cc2F)c(Cl)c1=O` (single isomer, unassigned) [Example 53A, rel-3-chloro-4-[(3,5-difluoropyridin-2-yl)methoxy]-3′-fluoro-2′-[2-(2-hydroxypropan-2-yl)pyrimidin-4-yl]-5′,6-dimethyl-[1,4′-bipyridin]-2-one] was tested, and the IC50 (p38a/MK2; [2]) was greater than 1000 nM and the IC50 (p38a/PRAK) was greater than 316000 nM.
`Cc1cnc(-c2ccc3c(n2)[C@@H](O)CC3)cc1-n1c(C)cc(OCc2ncc(F)cc2F)c(Cl)c1=O` (single isomer, unassigned) [Example 18B] gave an IC50 (p38a/MK2; [1]) greater than 10000 nM and an IC50 (p38a/PRAK) greater than 316000 nM.
`Cc1sc(-c2ccnc(C(C)(C)O)n2)nc1-n1c(C)cc(OCc2ncc(F)cc2F)c(Cl)c1=O` [Example 17, 3-chloro-4-[(3,5-difluoropyridin-2-yl)methoxy]-1-{2-[2-(2-hydroxypropan-2-yl)pyrimidin-4-yl]-5-methyl-1,3-thiazol-4-yl}-6-methylpyridin-2-one] showed an IC50 (p38a/MK2; [1]) of 2510 nM and an IC50 (p38a/PRAK) of 39800 nM.
`Cc1cnc(-n2ccc(C(C)(C)O)n2)cc1-n1c(C)cc(OCc2ncc(F)cc2F)c(Cl)c1=O` (single isomer, unassigned) [Example 9A, rel-3-chloro-4-((3,5-difluoropyridin-2-yl)methoxy)-2′-(3-(2-hydroxypropan-2-yl)-1H-pyrazol-1-yl)-5′,6-dimethyl-2H-[1,4′-bipyridin]-2-one] showed an IC50 (p38a/MK2; [2]) of 3.98 nM and an IC50 (p38a/PRAK) of 3160 nM.
`[2H]C([2H])(Oc1cc(C)n(-c2c(C)cnc(-n3ccc(C(C)(C)O)n3)c2F)c(=O)c1Cl)c1ncc(F)cc1F` [Example 58A, rel-3-chloro-4-[(3,5-difluoropyridin-2-yl)(2H2)methoxy]-3′-fluoro-2′-[3-(2-hydroxypropan-2-yl)pyrazol-1-yl]-5′,6-dimethyl-[1,4′-bipyridin]-2-one] gave an IC50 (p38a/MK2; [2]) of 1.26 nM and an IC50 (p38a/PRAK) of 1000 nM.
For `Cc1cnc(COc2cc(C)n(-c3cc(-c4ccnc(C(C)(C)O)n4)ncc3C)c(=O)c2Cl)c(F)c1` (single isomer, unassigned) [Example 23B, rel-3-chloro-4-[(3-fluoro-5-methylpyridin-2-yl)methoxy]-2′-[2-(2-hydroxypropan-2-yl)pyrimidin-4-yl]-5′,6-dimethyl-[1,4′-bipyridin]-2-one], the IC50 (p38a/MK2; [1]) was greater than 10000 nM and the IC50 (p38a/PRAK) was greater than 316000 nM.
In the case of `Cc1cc(COc2cc(C)n(-c3cc(-c4ccnc(C(C)(C)O)n4)ncc3C)c(=O)c2Cl)ncc1F` (single isomer, unassigned) [Example 22A, rel-3-chloro-4-[(5-fluoro-4-methylpyridin-2-yl)methoxy]-2′-[2-(2-hydroxypropan-2-yl)pyrimidin-4-yl]-5′,6-dimethyl-[1,4′-bipyridin]-2-one], the IC50 (p38a/MK2; [1]) is reported as 31.6 nM and the IC50 (p38a/PRAK) is reported as 15800 nM.
